# Like-named read-outs stand apart in the source and are kept apart here.
# Tests used:
# DU-145 = assay: γH2A.X Western blot (DNA damage biomarker); type: cell-based; conditions: 20 or 200 nM, 24 h
# Procedure: (§1) Cell cycle phase distribution in control (C) cells or cells treated at 20 or 200 nM Compound 1 for 24 hours (24 h) determined by fluorescence activated cell sorting (FACS) analysis, and detection of histone H2A variant H2A.X phosphorylation (γH2A.X, also referred to herein as gamma H2A.X or γH2A.X) by Western blot as DNA damage biomarker.
# (§2) The observed accumulation of DNA damage upon tumor cell exposure to Compound 1, measured as an increase of the DNA damage biomarker γH2A.X (FIG. 3A), is in line with reports of p300/CBP being involved in DNA replication and DNA damage repair (DDR). […] Among these DDR proteins are ATR (ataxia telangiectasia and Rad3-related), which controls crucial cell cycle and repair checkpoints, but also nibrin (NBS1), and poly(ADP-ribose) polymerase 1 (PARP-1).
# (§3) In FIG. 3A, protein amounts were normalized using total protein load with ImageLab 6.0 Software (BioRad).
# NCI-H82 = assay: γH2A.X Western blot (DNA damage biomarker); type: cell-based; conditions: 20 or 200 nM, 24 h
# Procedure: as §1, §2, §3
# NCI-H69 = assay: γH2A.X Western blot (DNA damage biomarker); type: cell-based; conditions: 20 or 200 nM, 24 h
# Procedure: as §1, §2, §3
# [1] = 14-day daily oral repeated-dose exploratory study in CD-1 mice (mesylate salt); type: in vivo; conditions: for AUC(0-t) / Cmax: CD-1, mouse, in vivo, po
# Procedure: This study explored the TK profile of Compound 1 after 14 days once daily oral dosing in male and female CD-1 mice.
# Compound 1 (mesylate salt) was administered once daily for 14 consecutive days by oral gavage to groups of CD-1 mice (n=8/sex/group) at dose levels of 0 (control), 1, 5, 10 or 15 mg/kg/day. A suspension of 0.5% Methylcellulose (w/v) and 0.1% Polysorbate 80 (Tween 80) (v/v) was used as vehicle. For TK investigations sparse blood sampling was performed on treatment Days 1 and 14; three blood samples per animal and day were collected either pre-dose, 2 and 8 hours after administration (4 male and female animals per group) or 1, 4, and 24 hours (remaining 4 male and 4 female animals per group) after administration.
# [2] = Plasma protein binding, equilibrium dialysis; type: in vitro ADME; conditions: 37° C, buffer pH 7.4, read-out: Fraction unbound (Fu), Mean
# Procedure: Protein binding of Compound 1 to the plasma from several species, i.e., human, cynomolgus monkey, dog, rat, and mouse was investigated in vitro by incubation in plasma and determination of unbound fraction of Compound 1 using equilibrium dialysis. Compound 1 was incubated in 100% species-specific plasma and added to one side of the membrane in an equilibrium dialysis system while buffer (pH 7.4) is added to the other side. The system was allowed to reach equilibrium at 37° C. Compound concentration on both sides of the membrane is measured by liquid chromatography—tandem mass spectroscopy (LC-MS/MS).
# [3] = tested on: human enzymes, transporters, kinases, receptors and ion channels; assay: In vitro safety pharmacology panels
# Procedure: Compound 1 was tested using in vitro safety pharmacology panels encompassing human enzymes, transporters, kinases, receptors and ion channels thought to be potential contributors to adverse drug reactions.
# SNU-5 = SNU-5 gastric cancer CDX mouse model; type: in vivo; conditions: for Tumor growth inhibition: p <0.001
# Procedure: Left panel: Tumor growth curves. Right panel: Body weight development. […] QD: once daily treatment; po: per os.
# Left panel: Tumor growth curves. Right panel: Body weight development. […] QW: once weekly treatment. p.o.: per oral.
# Compound 1 (3 mg/kg) was administered orally to the gastric cancer CDX model of SNU-5 cells (FIG. 8C), which harbor a loss-of-function of p53 and mutations in the CDKN2A gene loci, the latter controlling the Rb and p53 pathways.
# Values larger than 100% indicate tumor regression.
# [4] = 14-day daily oral repeated-dose DRF study in Beagle dogs (citrate salt); type: in vivo; conditions: for Cmax / Tmax / half-life: both sexes, Beagle, dog, plasma, po
# Procedure: The objective of this dose-range-finding study was to select the dose levels for a potential subsequent toxicity study of Compound 1 by oral administration to Beagle dogs.
# Compound 1 (citrate salt) administration in this study was intended once daily for up to 14 consecutive days by oral gavage to groups of naïve Beagle dogs (n=1/sex/group) at dose levels of 0.1, 0.3, 1, 3, 6, or 12 mg Compound 1 per kg bodyweight and day in 0.5% methylcellulose by using a staggered approach. The actual dose levels and durations of dosing were flexibly adapted according to PK and signs of tolerability. For TK evaluation blood samples were collected from each dog on Days 1 and 14 at pre-dose, 1, 2, 4, 8, 12, and 24 hours post-dose.
smiles,measurement,setting,value
"CC(C)C[C@@H]1NCCN([C@@H](CC(C)C)C(=O)N2CCC3(C[C@@H]2C)OCC(CN2CCCC2)CO3)C1=O (stereo partly drawn) [Compound 1, (S)-3-isobutyl-1-((S)-4-methyl-1-((S)-8-methyl-3-(pyrrolidin-1-ylmethyl)-1,5-dioxa-9-azaspiro[5.5]undecan-9-yl)-1-oxopentan-2-yl)piperazin-2-one]",DNA damage marker γH2A.X,DU-145,accumulation of the DNA damage marker γH2A.X
same,DNA damage marker γH2A.X,NCI-H82,accumulation of the DNA damage marker γH2A.X
same,DNA damage marker γH2A.X,NCI-H69,accumulation of the DNA damage marker γH2A.X
same,tolerability,"[1]; 1, 5, 10, and 15 mg/kg/day orally once daily for 14 consecutive days",well-tolerated
same,AUC(0-t),"[1]; female, 1 mg/kg, F, Day 1",33.1 ng·h/mL
same,Cmax,"[1]; female, 1 mg/kg, F, Day 1",6.4 ng/mL
same,AUC(0-t),"[1]; female, 1 mg/kg, F, Day 14",112 ng·h/mL
same,Cmax,"[1]; female, 1 mg/kg, F, Day 14",16.6 ng/mL
same,AUC(0-t),"[1]; female, 5 mg/kg, F, Day 1",258 ng·h/mL
same,Cmax,"[1]; female, 5 mg/kg, F, Day 1",67.6 ng/mL
same,AUC(0-t),"[1]; female, 5 mg/kg, F, Day 14",478 ng·h/mL
same,Cmax,"[1]; female, 5 mg/kg, F, Day 14",115 ng/mL
same,AUC(0-t),"[1]; female, 10 mg/kg, F, Day 1",304 ng·h/mL
same,Cmax,"[1]; female, 10 mg/kg, F, Day 1",60.5 ng/mL
same,AUC(0-t),"[1]; female, 10 mg/kg, F, Day 14",690 ng·h/mL
same,Cmax,"[1]; female, 10 mg/kg, F, Day 14",97.7 ng/mL
same,AUC(0-t),"[1]; female, 15 mg/kg, F, Day 1",711 ng·h/mL
same,Cmax,"[1]; female, 15 mg/kg, F, Day 1",140 ng/mL
same,AUC(0-t),"[1]; female, 15 mg/kg, F, Day 14",1090 ng·h/mL
same,Cmax,"[1]; female, 15 mg/kg, F, Day 14",151 ng/mL
same,AUC(0-t),"[1]; male, 1 mg/kg, M, Day 1",55.4 ng·h/mL
same,Cmax,"[1]; male, 1 mg/kg, M, Day 1",10.9 ng/mL
same,AUC(0-t),"[1]; male, 1 mg/kg, M, Day 14",108 ng·h/mL
same,Cmax,"[1]; male, 1 mg/kg, M, Day 14",16.3 ng/mL
same,AUC(0-t),"[1]; male, 5 mg/kg, M, Day 1",225 ng·h/mL
same,Cmax,"[1]; male, 5 mg/kg, M, Day 1",42.9 ng/mL
same,AUC(0-t),"[1]; male, 5 mg/kg, M, Day 14",607 ng·h/mL
same,Cmax,"[1]; male, 5 mg/kg, M, Day 14",90 ng/mL
same,AUC(0-t),"[1]; male, 10 mg/kg, M, Day 1",361 ng·h/mL
same,Cmax,"[1]; male, 10 mg/kg, M, Day 1",64.8 ng/mL
same,AUC(0-t),"[1]; male, 10 mg/kg, M, Day 14",782 ng·h/mL
same,Cmax,"[1]; male, 10 mg/kg, M, Day 14",105 ng/mL
same,AUC(0-t),"[1]; male, 15 mg/kg, M, Day 1",689 ng·h/mL
same,Cmax,"[1]; male, 15 mg/kg, M, Day 1",133 ng/mL
same,AUC(0-t),"[1]; male, 15 mg/kg, M, Day 14",717 ng·h/mL
same,Cmax,"[1]; male, 15 mg/kg, M, Day 14",102 ng/mL
same,fraction unbound,[2]; dog plasma,0.619
same,fraction unbound,[2]; human plasma,0.547
same,fraction unbound,[2]; mouse plasma,0.574
same,fraction unbound,[2]; rat plasma,0.528
same,responses in safety pharmacology panels,[3],No significant responses were detected
same,"anti-tumor efficacy, every other week vs daily",SNU-5; 3 mg/kg oral,comparable anti-tumor efficacies
same,tumor growth,SNU-5; 30 mg/kg once every seven days for 7 weeks,almost complete inhibition of tumor growth
same,Tumor growth inhibition,"SNU-5; once weekly 15 mg/kg/day, 7 weeks",62% (<0.001)/
same,Tumor growth inhibition,"SNU-5; once weekly 30 mg/kg/day, 7 weeks",91% (<0.001)/
same,Tumor growth inhibition,"SNU-5; once weekly 60 mg/kg/day as 30 mg/kg BID, 5 weeks",98% (<0.001)/**5 weeks
same,accumulation of drug exposure (Day 1 versus Day 14),[4]; 0.1 mg/kg/day,no accumulation with time
same,Total AUC(o-inf),"[4]; 0.1 mg/kg/day, Day 1",5.6 ng·h/mL
same,accumulation of drug exposure (Day 1 versus Day 14),[4]; 0.3 mg/kg/day,slight increase over time
same,Total AUC(o-inf),"[4]; 0.3 mg/kg/day, Day 1",13.8 ng·h/mL
same,Total AUC(o-inf),"[4]; 1 mg/kg/day, Day 1",63.8 ng·h/mL
same,Total AUC(o-inf),"[4]; 3 mg/kg/day, Day 1",171.6 ng·h/mL
same,Total AUC(o-inf),"[4]; 6 mg/kg/day, Day 1",734.8 ng·h/mL
same,Total AUC(o-inf),"[4]; 12 mg/kg/day, Day 1",936.4 ng·h/mL
same,Cmax,"[4]; 0.1 mg/kg/day, Day 1, read-out: mean Cmax plasma levels",0.6 ng/mL
same,Cmax,"[4]; 0.1 mg/kg/day, Day 14, read-out: group mean Cmax plasma levels",0.4 ng/mL
same,Cmax,"[4]; 0.3 mg/kg/day, Day 1, read-out: mean Cmax plasma levels",2.3 ng/mL
same,Cmax,"[4]; 0.3 mg/kg/day, Day 14, read-out: group mean Cmax plasma levels",3.8 ng/mL
same,Cmax,"[4]; 1 mg/kg/day, Day 1, read-out: mean Cmax plasma levels",8.6 ng/mL
same,Cmax,"[4]; 3 mg/kg/day, Day 1, read-out: mean Cmax plasma levels",23.8 ng/mL
same,Cmax,"[4]; 6 mg/kg/day, Day 1, read-out: mean Cmax plasma levels",114 ng/mL
same,Cmax,"[4]; 12 mg/kg/day, Day 1, read-out: mean Cmax plasma levels",182 ng/mL
same,Tmax,"[4]; 0.1 and 0.3 mg/kg/day, Day 14",1 h
same,half-life,"[4]; 0.1 and 0.3 mg/kg/day, Day 14, read-out: terminal elimination half-lives",4.7 to 5.5 h
same,Tmax,"[4]; all doses, Day 1",1 to 2 h
same,half-life,"[4]; all doses, Day 1, read-out: elimination half-life",3.4 to 6.2 h
same,tolerability,[4]; daily oral 0.1 and 0.3 mg/kg/day for 14 days and 1 mg/kg/day for 6 days,well-tolerated
same,tolerability,"[4]; daily oral 3, 6, and 12 mg/kg/day for 14 days",not well-tolerated
